The experiment deals with G protein-coupled receptor 88 (GPR88) (Homo sapiens, UniProt Q9GZN0). In words: GPR88 functional assay: EC50 of Table 2 (GTPγS assay and cAMP HTRF assay described; table does not say which). Type of experiment: cell-based. The settings on record: read-out: Range (EC50). Here is the method: 96 well GTPγS assay plates were purchased from Perkin Elmer. Wheat Germ Agglutinin PVT SPA beads and ^35S-GTPγS were purchased from Amersham GDP, GTPγS and all buffer reagents were from Sigma. 384 well white NBS plates were purchased from corning. Pertussis toxin was purchased from Calbiochem. All cell culture reagents were purchased from Invitrogen. Forskolin was purchased from Sigma. The cAMP HTRF kit was purchased fron Cisbio International.
The GTPγS assay buffer consisted of 10 mM MgCl2, 180 mM NaCl, 200 uM GDP, 0.167 mg/mL DTT, 1 mM EGTA and 20 mM HEPES pH7.4. This buffer was used for dilution of membranes, beads, and ^35S GTPγS components. To each well of the 96 well assay plate 48 ul assay buffer, 2 ul of 100× compound, 50 ul membrane solution (0.2 ug/ul), 50 ul ^35S GTPγS solution (0.8 nM) and 50 ul of SPA beads (10 mg/mL). Non-specific binding was determined by the addition of cold GTPγS to control wells. The plates were sealed with clear sealing tape and incubated at room temperature for 1 hour. GTPγS activity was detected using a Wallac Micro-Beta Trilux liquid scintillation counter. Non-specific binding was determined using 10 uM cold GTPγS.
The cAMP HTRF assay is modified from the Cisbio International kit procedure 62AM4PEJ. Assay plates were prepared by stamping 0.1 ul of 100× compound stock solutions diluted in DMSO or DMSO alone into 384 well NBS plates. The cAMP HTRF assay was performed using cells in suspension. The cAMP HTRF assay buffer consisted of Hank's Balanced Salt Solution (HBSS), 2 mM CaCl2, 5 mM MgCl2, 20 mM HEPES and 1 mM 3-isobutyl-1-methylxanthine (IBMX) (added fresh at the time of assay). For pertussis toxin treatment pertussis toxin (100 ng/mL) was added to culture medium for 16 hours prior to assay. Confluent cells were disrupted with cell dissociation buffer count cells then centrifuged at 1000×g for 5 minutes. The cell pellet was resuspended in assay buffer alone for basal cAMP measurements or with 0.75 uM forskolin (added immediately prior to addition to wells) for addition to all other wells. Using a Multidrop 384 (Lab systems) 10 ul of cell suspension was added to each well containing compound or DMSO. The plates were incubated at room temperature for 30 minutes covered. During this time the cAMP standard curve was prepared as per manufacturer's instruction. At the end of the incubation 10 ul of anti-cAMP cryptate and 10 ul cAMP-XL, diluted in manufacturer's lysis buffer, were added to each well. The plated were incubated at room temperature for 60 minutes covered then read on an Envision plate reader (Perkin Elmer) and the 665 nm/620 nm fluorescence ratio determined Fluorescence ratio values were converted to molar cAMP concentrations from the standard curve using the GraphPad Prism program.
Background: TR-FRET usually uses a lanthanide donor and a delayed reading to cut background.

27 molecules from patent US8304577B2, “Modulators of G protein-coupled receptor 88” (Bristol-Myers Squibb Company, priority 2009, dated 2012) can be followed below.

Where two headings read alike, the source gives them in different places.

G protein-coupled receptor 88 (GPR88), sequence (Q9GZN0 whole entry, species assumed): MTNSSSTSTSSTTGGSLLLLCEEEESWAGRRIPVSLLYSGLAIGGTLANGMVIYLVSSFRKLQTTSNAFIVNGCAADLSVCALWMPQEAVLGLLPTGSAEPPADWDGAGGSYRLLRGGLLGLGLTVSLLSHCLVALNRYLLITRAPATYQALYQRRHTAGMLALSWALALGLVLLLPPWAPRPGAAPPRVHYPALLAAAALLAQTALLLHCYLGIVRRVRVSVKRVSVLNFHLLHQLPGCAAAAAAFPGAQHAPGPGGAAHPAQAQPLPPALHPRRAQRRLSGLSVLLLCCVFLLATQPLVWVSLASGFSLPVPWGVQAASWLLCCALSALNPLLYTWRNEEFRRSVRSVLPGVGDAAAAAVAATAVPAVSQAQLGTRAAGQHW

Regarding `CCCC(C)COc1ccc(C(CN2CCN(C)CC2)NC(=O)[C@@H](C)c2ccccc2)cc1` (mixture of isomers) [Example 36, (2S)-N-(1-(4-(2-Methylpentyloxy)phenyl)-2-(4-methylpiperazin-1-yl)ethyl)-2-phenylpropanamide], where the note is “class symbol”, the EC50 is 100 to 200 nM. On the same count and under the same terms, the value for `CCCC(C)COc1ccc([C@H](CO)NC(=O)[C@@H](CC)c2ccccc2)cc1` (stereo partly drawn) [Example 2, (2S)-N-((1R)-2-Hydroxy-1-(4-(2-methylpentyloxy)phenyl)ethyl)-2-phenylbutanamide] was 100 to 200 nM; that for `CCCC(C)COc1ccc([C@H](CO)NC(=O)[C@@H](CO)c2ccccc2)cc1` (stereo partly drawn) [Example 3, (2R)-3-Hydroxy-N-((1R)-2-hydroxy-1-(4-(2-methylpentyloxy)phenyl)ethyl)-2-phenylpropanamide] was 100 to 200 nM.

Turning to `CCCC(C)COc1ccc([C@H](CN)NC(=O)[C@@H](C)c2ccccc2)cc1` (stereo partly drawn) [Example 5, (2S)-N-((1R)-2-Amino-1-(4-(2-methylpentyloxy)phenyl)ethyl)-2-phenylpropanamide], the concentration giving a half-maximal response (EC50) (exact value given) came out at 54 nM. As to `CCCC(C)COc1ccc([C@H](CN(C)C)NC(=O)[C@@H](C)c2ccccc2)cc1` (stereo partly drawn) [Example 6, (2S)-N-((1R)-2-(Dimethylamino)-1-(4-(2-methylpentyloxy)phenyl)ethyl)-2-phenylpropanamide], the EC50 (class symbol) was 39 to 99 nM. With `CCCC(C)COc1ccc([C@H](CNCC2CC2)NC(=O)[C@@H](C)c2ccccc2)cc1` (stereo partly drawn) [Example 7, (2S)-N-((1R)-2-(Cyclopropylmethylamino)-1-(4-(2-methylpentyloxy)phenyl)ethyl)-2-phenylpropanamide], where the note is “class symbol”, the EC50 is 39 to 99 nM. Consider `CCCC(C)COc1ccc([C@H](CNCC(C)CC)NC(=O)[C@@H](C)c2ccccc2)cc1` (stereo partly drawn) [Example 8, (2S)-N-((1R)-2-(2-Methylbutylamino)-1-(4-(2-methylpentyloxy)phenyl)ethyl)-2-phenylpropanamide], for which, under “class symbol”, the EC50 was in the range of 100 to 200 nM.

For `CCCC(C)COc1ccc([C@H](CNCc2ccncc2)NC(=O)[C@@H](C)c2ccccc2)cc1` (stereo partly drawn) [Example 9, (2S)-N-((1R)-1-(4-(2-Methylpentyloxy)phenyl)-2-(pyridin-4-ylmethylamino)ethyl)-2-phenylpropanamide], the concentration for a half-maximal effect (EC50) (class symbol) is 100 to 200 nM. Regarding `CCCC(C)COc1ccc([C@H](CNCc2ccccn2)NC(=O)[C@@H](C)c2ccccc2)cc1` (stereo partly drawn) [Example 10, (2S)-N-((1R)-1-(4-(2-Methylpentyloxy)phenyl)-2-(pyridin-2-ylmethylamino)ethyl)-2-phenylpropanamide], the EC50 (exact value given) was 110 nM.

On to `CCCC(C)COc1ccc([C@H](CNCc2cc[nH]n2)NC(=O)[C@@H](C)c2ccccc2)cc1` (stereo partly drawn) [Example 11, (2S)-N-((1R)-2-((1H-Pyrazol-3-yl)methylamino)-1-(4-(2-methylpentyloxy)phenyl)ethyl)-2-phenylpropanamide], for which, under “class symbol”, the half-maximal effective concentration (EC50) was 100 to 200 nM. Take `CCCC(C)COc1ccc([C@H](CNCc2c[nH]c3ccccc23)NC(=O)[C@@H](C)c2ccccc2)cc1` (stereo partly drawn) [Example 12, (2S)-N-((1R)-2-((1H-Indol-3-yl)methylamino)-1-(4-(2-methylpentyloxy)phenyl)ethyl)-2-phenylpropanamide]: the EC50 (class symbol) was 100 to 200 nM.

`CCCC(C)COc1ccc([C@H](CNCc2cccnc2)NC(=O)[C@@H](C)c2ccccc2)cc1` (stereo partly drawn) [Example 13, (2S)-N-((1R)-1-(4-(2-Methylpentyloxy)phenyl)-2-(pyridin-3-ylmethylamino)ethyl)-2-phenylpropanamide]: the EC50 (class symbol) was 100 to 200 nM. Same read-out and setting: the value for `CCCC(C)COc1ccc([C@H](CNCC2CCOC2)NC(=O)[C@@H](C)c2ccccc2)cc1` (stereo partly drawn) [Example 14, (2S)-N-((1R)-1-(4-(2-Methylpentyloxy)phenyl)-2-((tetrahydrofuran-3-yl)methylamino)ethyl)-2-phenylpropanamide] was 100 to 200 nM. As to `CCCC(C)COc1ccc([C@H](CNCC2(N)CCCC2)NC(=O)[C@@H](C)c2ccccc2)cc1` (stereo partly drawn) [Example 15, (2S)-N-((1R)-2-((1-Aminocyclopentyl)methylamino)-1-(4-(2-methylpentyloxy)phenyl)ethyl)-2-phenylpropanamide], where the note is “class symbol”, the half-maximal effective concentration (EC50) was 39 to 99 nM. Take `CCCC(C)COc1ccc([C@H](CNC[C@@H]2CCCN2)NC(=O)[C@@H](C)c2ccccc2)cc1` (stereo partly drawn) [Example 16, (2S)-N-((1R)-1-(4-(2-Methylpentyloxy)phenyl)-2-((S)-pyrrolidin-2-ylmethylamino)ethyl)-2-phenylpropanamide]: the EC50 (exact value given) amounted to 100 nM. For `CCCC(C)COc1ccc([C@H](CNC[C@H](C)N)NC(=O)[C@@H](C)c2ccccc2)cc1` (stereo partly drawn) [Example 17, (2S)-N-((1R)-2-((S)-2-Aminopropylamino)-1-(4-(2-methylpentyloxy)phenyl)ethyl)-2-phenylpropanamide], the EC50 (class symbol) was 100 to 200 nM. As for `CCCC(C)COc1ccc([C@H](CNC[C@H]2CCCN2)NC(=O)[C@@H](C)c2ccccc2)cc1` (stereo partly drawn) [Example 18, (2S)-N-((1R)-1-(4-(2-Methylpentyloxy)phenyl)-2-((R)-pyrrolidin-2-ylmethylamino)ethyl)-2-phenylpropanamide], the EC50 (exact value given) is 154 nM. Regarding `CCCC(C)COc1ccc([C@H](CNC(=O)[C@@H](N)[C@@H](C)CC)NC(=O)[C@@H](C)c2ccccc2)cc1` (stereo partly drawn) [Example 19, (2S,3S)-2-Amino-3-methyl-N-((2R)-2-(4-(2-methylpentyloxy)phenyl)-2-((S)-2-phenylpropanamido)ethyl)pentanamide], the EC50 (class symbol) fell in the range of 39 to 99 nM. For `CCCC(C)COc1ccc([C@H](CNC(=O)[C@H](N)CC(C)C)NC(=O)[C@@H](C)c2ccccc2)cc1` (stereo partly drawn) [Example 20, (2R)-2-Amino-4-methyl-N-((2R)-2-(4-(2-methylpentyloxy)phenyl)-2-((S)-2-phenylpropanamido)ethyl)pentanamide], under “class symbol”, the EC50 lay within 39 to 99 nM. In the case of `CCCC(C)COc1ccc([C@H](CNC(=O)[C@@H]2CCCN2)NC(=O)[C@@H](C)c2ccccc2)cc1` (stereo partly drawn) [Example 21, (2S)-N-((2R)-2-(4-(2-Methylpentyloxy)phenyl)-2-((S)-2-phenylpropanamido)ethyl)pyrrolidine-2-carboxamide], the EC50 (exact value given) was found to be 89 nM.

As to `CCCC(C)COc1ccc([C@H](CNC(=O)[C@H](N)[C@H](C)CC)NC(=O)[C@@H](C)c2ccccc2)cc1` (stereo partly drawn) [Example 22, (2R,3R)-2-Amino-3-methyl-N-((2R)-2-(4-(2-methylpentyloxy)phenyl)-2-((S)-2-phenylpropanamido)ethyl)pentanamide], the EC50 (class symbol) was 39 to 99 nM. Same read-out and setting: for `CCCC(C)COc1ccc([C@H](CNC(=O)[C@H](C)N)NC(=O)[C@@H](C)c2ccccc2)cc1` (stereo partly drawn) [Example 23, (2S)-2-Amino-N-((2R)-2-(4-(2-methylpentyloxy)phenyl)-2-((S)-2-phenylpropanamido)ethyl)propanamide] the value was 39 to 99 nM. Same read-out and setting: the value for `CCCC(C)COc1ccc([C@H](CNC(=O)[C@@H](N)C(C)C)NC(=O)[C@@H](C)c2ccccc2)cc1` (stereo partly drawn) [Example 24, (2S)-2-Amino-3-methyl-N-((2R)-2-(4-(2-methylpentyloxy)phenyl)-2-((S)-2-phenylpropanamido)ethyl)butanamide] was 39 to 99 nM; that for `CCCC(C)COc1ccc([C@H](CNC(=O)[C@@H](N)CC)NC(=O)[C@@H](C)c2ccccc2)cc1` (stereo partly drawn) [Example 25, (2S)-2-Amino-N-((2R)-2-(4-(2-methylpentyloxy)phenyl)-2-((S)-2-phenylpropanamido)ethyl)butanamide] was 39 to 99 nM; that for `CCCC(C)COc1ccc([C@H](CNC(=O)[C@@H](N)CCC)NC(=O)[C@@H](C)c2ccccc2)cc1` (stereo partly drawn) [Example 26, (2S)-2-Amino-N-((2R)-2-(4-(2-methylpentyloxy)phenyl)-2-((S)-2-phenylpropanamido)ethyl)pentanamide] was 39 to 99 nM. With `CCCC(C)COc1ccc([C@H](CNC(=O)[C@@H](N)[C@H](C)CC)NC(=O)[C@@H](C)c2ccccc2)cc1` (stereo partly drawn) [Example 27, (2S,3R)-2-Amino-3-methyl-N-((2R)-2-(4-(2-methylpentyloxy)phenyl)-2-((S)-2-phenylpropanamido)ethyl)pentanamide], the EC50 (class symbol) lay within 100 to 200 nM.

For the molecule `CCCC(C)COc1ccc([C@H](CNC(=O)[C@@H](N)CC2CC2)NC(=O)[C@@H](C)c2ccccc2)cc1` (stereo partly drawn) [Example 28, (2S)-2-Amino-3-cyclopropyl-N-((2R)-2-(4-(2-methylpentyloxy)phenyl)-2-((S)-2-phenylpropanamido)ethyl)propanamide], the EC50 (class symbol) lay within 100 to 200 nM.

The term EC50 denotes the midpoint of the concentration-response curve.
